Reference: patent US11213517B2, “Pharmaceutical combination comprising a T-type calcium channel blocker” (IDORSIA PHARMACEUTICALS LTD, priority 2016, dated 2022)
Values joined by “and” are separate entries in the source; they are usually repeats but may differ in a detail not shown here. Equal values may be shown once. Read-outs that look alike come from different tables or passages of the source.

Columns and labels:
[1] = Plasma and brain concentrations of drugs at the end of the audiogenic seizure experiment (LC-MS); format: in vivo, mouse; conditions: for plasma and brain concentrations after administration of the compounds alone or in combination: juvenile DBA/2J mice; for concentration at 3 h: DBA/2J, mouse
[2] = system: audiogenic seizure-sensitive juvenile DBA/2J mice; assay: Audiogenic seizure-sensitive juvenile DBA/2J mouse model of generalized tonic-clonic seizures; format: in vivo; set-up: key: 0 none, 1 wild running, 2 clonus, 3 hind-limb tonic extension; conditions: COMPOUND 1 10 mg/kg 3 h + vehicle 1 h before stimulus, oral gavage; mean ± SEM; 10 mg/kg
[3] = analyte COMPOUND 1, COMPOUND 1 10 mg/kg 3 h + vehicle 1 h before stimulus, oral gavage, mean ± SEM, 10 mg/kg

Question: For `N#Cc1ccc(Cn2ccc(NC(=O)Cc3ccc(C4(C(F)(F)F)CC4)cc3)n2)nc1` [COMPOUND 1, N-[1-(5-Cyano-pyridin-2-ylmethyl)-1H-pyrazol-3-yl]-2-[4-(1-trifluoromethyl-cyclopropyl)-phenyl]-acetamide], which “plasma and brain concentrations after administration of the compounds alone or in combination” value (“plasma and brain concentrations” for short) ([1]; COMPOUND 1 and LEV) is on record?
Answer: Its value is “similar”.

Question: What about the “plasma and brain concentrations” value ([1]; COMPOUND 1 and lamotrigine) of the same compound?
Answer: Its value is “similar”.

Question: What about the “plasma and brain concentrations” value ([1]; COMPOUND 1 and valproic acid) of the same compound?
Answer: Its value is “similar”.

Question: What about the concentration at 3 h ([1]; brain, oral, analyte COMPOUND 1, COMPOUND 1 10 mg/kg 3 h + LEV 1 mg/kg 1 h before stimulus, oral gavage, mean ± SEM, read-out: Brain concentration total) of the same compound?
Answer: Its concentration at 3 h is 1930 ± 100 ng/g.

Question: What about the concentration at 3 h ([1]; brain, oral, analyte COMPOUND 1, COMPOUND 1 10 mg/kg 3 h + LEV 3 mg/kg 1 h before stimulus, oral gavage, mean ± SEM, read-out: Brain concentration total) of the same compound?
Answer: Its concentration at 3 h is 2520 ± 190 ng/g.

Question: What about the concentration at 3 h ([1]; brain, oral, analyte COMPOUND 1, COMPOUND 1 10 mg/kg 3 h + LEV 10 mg/kg 1 h before stimulus, oral gavage, mean ± SEM, read-out: Brain concentration total) of the same compound?
Answer: The concentration at 3 h was 2030 ± 137 ng/g.

Question: What about the concentration at 3 h ([1]; brain, oral, analyte COMPOUND 1, COMPOUND 1 10 mg/kg 3 h + LEV 50 mg/kg 1 h before stimulus, oral gavage, mean ± SEM, read-out: Brain concentration total) of the same compound?
Answer: The concentration at 3 h was 1810 ± 93 ng/g.

Question: What about the concentration at 3 h ([1]; brain, oral, analyte COMPOUND 1, COMPOUND 1 10 mg/kg 3 h + LTG 10 mg/kg 1 h before stimulus, oral gavage, mean ± SEM, read-out: Brain concentration total) of the same compound?
Answer: Its concentration at 3 h is 1420 ± 165 ng/g.

Question: And the concentration at 3 h ([1]; brain, oral, analyte COMPOUND 1, COMPOUND 1 10 mg/kg 3 h + VPA 100 mg/kg 1 h before stimulus, oral gavage, mean ± SEM, read-out: Brain concentration total)?
Answer: Its concentration at 3 h is 2040 ± 178 ng/g.

Question: What about the concentration at 3 h ([1]; brain, oral, analyte COMPOUND 1, COMPOUND 1 10 mg/kg 3 h + VPA 200 mg/kg 1 h before stimulus, oral gavage, mean ± SEM, read-out: Brain concentration total) of the same compound?
Answer: The concentration at 3 h was 1640 ± 52 ng/g.

Question: And the concentration at 3 h ([1]; brain, oral, analyte COMPOUND 1, COMPOUND 1 30 mg/kg 3 h + LEV 3 mg/kg 1 h before stimulus, oral gavage, mean ± SEM, read-out: Brain concentration total)?
Answer: The concentration at 3 h was 5960 ± 330 ng/g.

Question: And the concentration at 3 h ([1]; brain, oral, analyte COMPOUND 1, COMPOUND 1 30 mg/kg 3 h + LEV 10 mg/kg 1 h before stimulus, oral gavage, mean ± SEM, read-out: Brain concentration total)?
Answer: The concentration at 3 h was 5470 ± 533 ng/g.

Question: What about the concentration at 3 h ([1]; brain, oral, analyte COMPOUND 1, COMPOUND 1 30 mg/kg 3 h + LEV 50 mg/kg 1 h before stimulus, oral gavage, mean ± SEM, read-out: Brain concentration total) of the same compound?
Answer: Its concentration at 3 h is 4690 ± 399 ng/g.

Question: And the concentration at 3 h ([1]; brain, oral, analyte COMPOUND 1, COMPOUND 1 30 mg/kg 3 h + LTG 3 mg/kg 1 h before stimulus, oral gavage, mean ± SEM, read-out: Brain concentration total)?
Answer: The concentration at 3 h was 5030 ± 238 ng/g.

Question: And the concentration at 3 h ([1]; brain, oral, analyte COMPOUND 1, COMPOUND 1 30 mg/kg 3 h + LTG 10 mg/kg 1 h before stimulus, oral gavage, mean ± SEM, read-out: Brain concentration total)?
Answer: Its concentration at 3 h is 4260 ± 350 ng/g.

Question: What about the concentration at 3 h ([1]; brain, oral, analyte COMPOUND 1, COMPOUND 1 30 mg/kg 3 h + LTG 30 mg/kg 1 h before stimulus, oral gavage, mean ± SEM, read-out: Brain concentration total) of the same compound?
Answer: The concentration at 3 h was 3290 ± 170 ng/g.

Question: And the concentration at 3 h ([1]; brain, oral, analyte COMPOUND 1, COMPOUND 1 30 mg/kg 3 h + VPA 30 mg/kg 1 h before stimulus, oral gavage, mean ± SEM, read-out: Brain concentration total)?
Answer: The concentration at 3 h was 5100 ± 375 ng/g.

Question: What about the concentration at 3 h ([1]; brain, oral, analyte COMPOUND 1, COMPOUND 1 30 mg/kg 3 h + VPA 100 mg/kg 1 h before stimulus, oral gavage, mean ± SEM, read-out: Brain concentration total) of the same compound?
Answer: Its concentration at 3 h is 5980 ± 336 ng/g.

Question: And the concentration at 3 h ([1]; brain, oral, analyte COMPOUND 1, COMPOUND 1 30 mg/kg 3 h + VPA 200 mg/kg 1 h before stimulus, oral gavage, mean ± SEM, read-out: Brain concentration total)?
Answer: Its concentration at 3 h is 4990 ± 245 ng/g.

Question: And the concentration at 3 h ([1]; brain, po, 10 mg/kg, analyte COMPOUND 1, COMPOUND 1 10 mg/kg 3 h + vehicle 1 h before stimulus, oral gavage, mean ± SEM, read-out: Brain concentration total)?
Answer: The concentration at 3 h was 1450 ± 104 ng/g.

Question: What about the concentration at 3 h ([1]; brain, po, 30 mg/kg, analyte COMPOUND 1, COMPOUND 1 30 mg/kg 3 h + vehicle 1 h before stimulus, oral gavage, mean ± SEM, read-out: Brain concentration total) of the same compound?
Answer: The concentration at 3 h was 5230 ± 487 ng/g.

Question: What about the concentration at 3 h ([1]; plasma, oral, analyte COMPOUND 1, COMPOUND 1 10 mg/kg 3 h + LEV 1 mg/kg 1 h before stimulus, oral gavage, mean ± SEM, read-out: Plasma concentration total) of the same compound?
Answer: Its concentration at 3 h is 1500 ± 112 ng/mL.

Question: And the concentration at 3 h ([1]; plasma, oral, analyte COMPOUND 1, COMPOUND 1 10 mg/kg 3 h + LEV 3 mg/kg 1 h before stimulus, oral gavage, mean ± SEM, read-out: Plasma concentration total)?
Answer: Its concentration at 3 h is 1600 ± 111 ng/mL.

Question: What about the concentration at 3 h ([1]; plasma, oral, analyte COMPOUND 1, COMPOUND 1 10 mg/kg 3 h + LEV 10 mg/kg 1 h before stimulus, oral gavage, mean ± SEM, read-out: Plasma concentration total) of the same compound?
Answer: The concentration at 3 h was 1590 ± 142 ng/mL.

Question: What about the concentration at 3 h ([1]; plasma, oral, analyte COMPOUND 1, COMPOUND 1 10 mg/kg 3 h + LEV 50 mg/kg 1 h before stimulus, oral gavage, mean ± SEM, read-out: Plasma concentration total) of the same compound?
Answer: Its concentration at 3 h is 1720 ± 124 ng/mL.

Question: What about the concentration at 3 h ([1]; plasma, oral, analyte COMPOUND 1, COMPOUND 1 10 mg/kg 3 h + LTG 10 mg/kg 1 h before stimulus, oral gavage, mean ± SEM, read-out: Plasma concentration total) of the same compound?
Answer: The concentration at 3 h was 1290 ± 140 ng/mL.

Question: What about the concentration at 3 h ([1]; plasma, oral, analyte COMPOUND 1, COMPOUND 1 10 mg/kg 3 h + VPA 100 mg/kg 1 h before stimulus, oral gavage, mean ± SEM, read-out: Plasma concentration total) of the same compound?
Answer: Its concentration at 3 h is 710 ± 80 ng/mL.

Question: And the concentration at 3 h ([1]; plasma, oral, analyte COMPOUND 1, COMPOUND 1 10 mg/kg 3 h + VPA 200 mg/kg 1 h before stimulus, oral gavage, mean ± SEM, read-out: Plasma concentration total)?
Answer: The concentration at 3 h was 1160 ± 73 ng/mL.

Question: And the concentration at 3 h ([1]; plasma, oral, analyte COMPOUND 1, COMPOUND 1 30 mg/kg 3 h + LEV 3 mg/kg 1 h before stimulus, oral gavage, mean ± SEM, read-out: Plasma concentration total)?
Answer: Its concentration at 3 h is 4530 ± 224 ng/mL.

Question: And the concentration at 3 h ([1]; plasma, oral, analyte COMPOUND 1, COMPOUND 1 30 mg/kg 3 h + LEV 10 mg/kg 1 h before stimulus, oral gavage, mean ± SEM, read-out: Plasma concentration total)?
Answer: Its concentration at 3 h is 4120 ± 315 ng/mL.

Question: What about the concentration at 3 h ([1]; plasma, oral, analyte COMPOUND 1, COMPOUND 1 30 mg/kg 3 h + LEV 50 mg/kg 1 h before stimulus, oral gavage, mean ± SEM, read-out: Plasma concentration total) of the same compound?
Answer: The concentration at 3 h was 3720 ± 351 ng/mL.

Question: What about the concentration at 3 h ([1]; plasma, oral, analyte COMPOUND 1, COMPOUND 1 30 mg/kg 3 h + LTG 3 mg/kg 1 h before stimulus, oral gavage, mean ± SEM, read-out: Plasma concentration total) of the same compound?
Answer: Its concentration at 3 h is 4550 ± 293 ng/mL.

Question: What about the concentration at 3 h ([1]; plasma, oral, analyte COMPOUND 1, COMPOUND 1 30 mg/kg 3 h + LTG 10 mg/kg 1 h before stimulus, oral gavage, mean ± SEM, read-out: Plasma concentration total) of the same compound?
Answer: The concentration at 3 h was 3960 ± 372 ng/mL.

Question: And the concentration at 3 h ([1]; plasma, oral, analyte COMPOUND 1, COMPOUND 1 30 mg/kg 3 h + LTG 30 mg/kg 1 h before stimulus, oral gavage, mean ± SEM, read-out: Plasma concentration total)?
Answer: Its concentration at 3 h is 2920 ± 150 ng/mL.

Question: What about the concentration at 3 h ([1]; plasma, oral, analyte COMPOUND 1, COMPOUND 1 30 mg/kg 3 h + VPA 30 mg/kg 1 h before stimulus, oral gavage, mean ± SEM, read-out: Plasma concentration total) of the same compound?
Answer: Its concentration at 3 h is 3150 ± 296 ng/mL.

Question: What about the concentration at 3 h ([1]; plasma, oral, analyte COMPOUND 1, COMPOUND 1 30 mg/kg 3 h + VPA 100 mg/kg 1 h before stimulus, oral gavage, mean ± SEM, read-out: Plasma concentration total) of the same compound?
Answer: Its concentration at 3 h is 2820 ± 256 ng/mL.

Question: And the concentration at 3 h ([1]; plasma, oral, analyte COMPOUND 1, COMPOUND 1 30 mg/kg 3 h + VPA 200 mg/kg 1 h before stimulus, oral gavage, mean ± SEM, read-out: Plasma concentration total)?
Answer: The concentration at 3 h was 2110 ± 118 ng/mL.

Question: And the concentration at 3 h ([1]; plasma, po, 10 mg/kg, analyte COMPOUND 1, COMPOUND 1 10 mg/kg 3 h + vehicle 1 h before stimulus, oral gavage, mean ± SEM, read-out: Plasma concentration total)?
Answer: Its concentration at 3 h is 2120 ± 175 ng/mL.

Question: What about the concentration at 3 h ([1]; plasma, po, 30 mg/kg, analyte COMPOUND 1, COMPOUND 1 30 mg/kg 3 h + vehicle 1 h before stimulus, oral gavage, mean ± SEM, read-out: Plasma concentration total) of the same compound?
Answer: The concentration at 3 h was 3090 ± 297 ng/mL.

Question: And the Brain concentration total [1, 3]?
Answer: Its Brain concentration total is 1895 ± 75 ng/g and 2379 ± 164 ng/g and 1965 ± 138 ng/g and 1743 ± 158 ng/g and 1435 ± 55 ng/g and 1197 ± 80 ng/g.

Question: And the Plasma concentration total [1, 3]?
Answer: Its Plasma concentration total is 1128 ± 98 ng/mL and 1858 ± 116 ng/mL and 1894 ± 113 ng/mL and 1785 ± 186 ng/mL and 1318 ± 77 ng/mL and 1522 ± 109 ng/mL.

Question: What about the “Seizure stage (maximal seizure stage observed during exposure to auditory stimulus)” value [2] of the same compound?
Answer: The value was 3 and 2.7 ± 0.3 and 3.0 ± 0.0 and 2.9 ± 0.1 and 2.7 ± 0.2 and 2.8 ± 0.2.
